Assay [1] deals with S. aureus. The conditions noted are these: Adv. Funct. Mater. 2013, 23, 4801-4809; cited from earlier work.
For assay [2], the system named is S. aureus. Kind of assay: Minimal inhibitory concentration of PAR in solution. Format: cell-based. The conditions noted are these: for times less active than PAR100 or PAR200 chains (from MICs in solution): per chain; for bacterial growth inhibition by PAR in solution: 1 μM. Here is the method:
Staphylococcus aureus (S. aureus, ATCC 25923) strains were used to assess the antibacterial properties of the test samples. Bacterial strain was cultured aerobically at 37° C. in a Mueller Hinton Broth (MHB) medium (Merck, Germany), pH 7.4. One colony was transferred to 10 mL of MHB medium and incubated at 37° C. for 20 h, to provide a final density of 10^6 CFU·mL^−1. To obtain bacteria in the mid logarithmic phase of growth, the absorbance at 620 nm of overnight culture was adjusted of 0.001.
In the following the inventors of the present invention wanted to further elucidate the underlying mechanism that confer to the coatings of the invention the strong inhibitory property on the surface and in the supernatant. As an example the (PAR30/HA)24 coating was further investigated. Accordingly, the minimal inhibitory concentration (MIC) of PAR in solution was determined using bacterial assay as described in Experimental Section. […] Finally for PAR at concentrations of 0.01 mg·mL^−1, inhibition of 100% was shown only for PAR30. Longer or shorter PAR chains (PAR10, PAR100 or PAR200) inhibits only partially (less than 40%) S. aureus growth. […] This reasoning is valid when PAR concentration values are expressed in mass (mg·mL^−1) thus it is related to the number of arginine monomers. However when the graph is plotted with concentrations in μM (and thus proportional in number of chains), which means that concentration is related to number of chains, different interpretation can be made. […] Moreover the MIC100 values obtained for PAR30, PAR100 or PAR200 ranges at very low concentrations (between 1 and 2 μM) which is remarkable when compared to well-known antimicrobial peptides (for example 30 μM for cateslytin with S. aureus, see Adv. Funct. Mater. 2013, 23, 4801-4809). PAR is thus a powerful candidate to fight against S. aureus.
FIG. 12: Graph with the Minimal inhibitory concentration (MIC100) of soluble PAR with 10, 30, 100 or 200 arginine residues. The Minimal inhibitory concentration (MIC100) leading to 100% inhibition of S. aureus were measured in solution. PAR with 10, 30, 100 or 200 arginine residues were tested.

Where [3] appears, read: concentrations up to 0.04 mg·mL−1.

Consider cateslytin, for which the “MIC with S. aureus (antimicrobial peptide, literature)” value in assay [1] is 30 µM.

As to poly-L-arginine [PAR30], the figures for the “S. aureus growth inhibition by PAR in solution” value (from here on “S. aureus growth inhibition”) in assay [2] (0.01 mg·mL−1), in assay [2] (0.03 mg·mL−1) and in assay [2] (setting [3]) were 100%, “total inhibition” and “totally inhibited”, respectively. In addition, in assay [2] (PAR in solution, S. aureus), the MIC90 entry was “about 2 μM”. Besides, in assay [2], the “times less active than PAR100 or PAR200 chains (from MICs in solution)” value is recorded as 2 times.

Regarding poly-L-arginine [PAR200], the “bacterial growth inhibition by PAR in solution” value in assay [2] is given as “totally inhibit”. Also, the “S. aureus growth inhibition” value in assay [2] (0.03 mg·mL−1) is “about 45%”; in assay [2] (setting [3]), “totally inhibited”.

In the case of poly-L-arginine [PAR10], the “S. aureus growth inhibition” value in assay [2] (0.03 mg·mL−1) is “total inhibition”; in assay [2] (setting [3]), “totally inhibited”. Further, in assay [2], the “times less active than PAR100 or PAR200 chains (from MICs in solution)” value worked out at 10 times.

With poly-L-arginine [PAR100], in assay [2], the “bacterial growth inhibition by PAR in solution” value is “totally inhibit”. Besides, the “S. aureus growth inhibition” value in assay [2] (0.03 mg·mL−1) was “total inhibition”; in assay [2] (setting [3]), “totally inhibited”.

The values above are taken from patent US11471558B2, “Polypeptide and hyaluronic acid coatings” (INSTITUT NATIONAL DE LA SANTE ET DE LA RECHERCHE MEDICALE …, priority 2016, dated 2022).
